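Growth conditions: 96-well plates. Treatment: test compound, 48 hours, 5 concentrations. Analysis: linear interpolation between bracketing concentrations; unreached endpoints set to highest concentration. The concentration for 50% growth inhibition is given as GI50.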 Calls of active or inactive are those of the source. Rule as the data show it: active = GI50 up to about 1.1 µM and inactive = higher.
Assays:
Test in all cases: NCI tumour cell line growth inhibition, 48 h
IGROV-1 = tested on: IGROV-1
DMS-114 = tested on: DMS-114
HCT-15 = tested on: HCT-15
HOP-62 = tested on: HOP-62
786-0 = tested on: 786-0
SK-MEL-2 = tested on: SK-MEL-2
K562 = tested on: K562
CAKI-1 = tested on: CAKI-1
SF-295 = tested on: SF-295
SW-620 = tested on: SW-620
COLO 205 = tested on: COLO 205
OVCAR-8 = tested on: OVCAR-8
U-251 = tested on: U-251
UACC-62 = tested on: UACC-62
Malme-3M = tested on: Malme-3M
SN12C = tested on: SN12C
BT-549 = tested on: BT-549
MDA-N = tested on: MDA-N
SNB-19 = tested on: SNB-19

Structure (SMILES) | GI50 (IGROV-1) | GI50 (DMS-114) | GI50 (HCT-15) [µM] | GI50 (HOP-62) | GI50 (786-0) | GI50 (SK-MEL-2) | GI50 (K562) | GI50 (CAKI-1) | GI50 (SF-295) | GI50 (SW-620) | GI50 (COLO 205) | GI50 (OVCAR-8) | GI50 (U-251) | GI50 (UACC-62) | GI50 (Malme-3M) | GI50 (SN12C) | GI50 (BT-549) | GI50 (MDA-N) | GI50 (SNB-19)
Cc1nc(-n2nc(-c3ccccc3)cc2-c2ccccc2)sc1C(=O)/C=C/c1ccc(Cl)cc1 | 27.7 µM (inactive) | 11.4 µM (inactive) | 22.2 | 13.3 µM (inactive) | 14.4 µM (inactive) | 19.6 µM (inactive) | > 10 µM (inactive) | 17.5 µM (inactive) | 15.3 µM (inactive) | 21.5 µM (inactive) | 16.5 µM (inactive) | 24.8 µM (inactive) | 15.8 µM (inactive) | 14.1 µM (inactive) | 22.4 µM (inactive) | 25.6 µM (inactive) |  |  | 
O=C(c1ccc(Cl)cc1)c1cnc(Nc2ccccc2Cl)s1 | 23.2 µM (inactive) | 24.7 µM (inactive) | 22.8 | 25.1 µM (inactive) | 17.5 µM (inactive) | 15.6 µM (inactive) | > 100 µM (inactive) | 17.3 µM (inactive) | 21.5 µM (inactive) | 40.1 µM (inactive) | 37 µM (inactive) | 29.2 µM (inactive) | 28.1 µM (inactive) | 21.5 µM (inactive) | 19 µM (inactive) | 22.3 µM (inactive) | 20.7 µM (inactive) | 21.8 µM (inactive) | 20.2 µM (inactive)
CCOC(=O)C(=O)C1C(=O)Nc2ccccc21 (stereo not given) | > 100 µM (inactive) | > 100 µM (inactive) |  | > 100 µM (inactive) | > 100 µM (inactive) | > 100 µM (inactive) | > 100 µM (inactive) | > 100 µM (inactive) | > 100 µM (inactive) | > 100 µM (inactive) | > 100 µM (inactive) | > 100 µM (inactive) | > 100 µM (inactive) | > 100 µM (inactive) | > 100 µM (inactive) | > 100 µM (inactive) |  |  | > 100 µM (inactive)
COc1cc2c(c(OC)c1OC)-c1ccc(SC)c(=O)cc1C(CO)C2 (stereo not given) | 0.169 µM (active) | 0.0791 µM (active) | 0.227 | 0.233 µM (active) | 0.355 µM (active) | 0.209 µM (active) | 0.0575 µM (active) | 0.634 µM (active) | 0.175 µM (active) | 0.167 µM (active) | 0.166 µM (active) | 0.188 µM (active) | 0.246 µM (active) | 0.0414 µM (active) | 0.0811 µM (active) | 0.335 µM (active) |  |  | 0.802 µM (active)
[N-]=[N+]=NC(c1cn(C2CC(O)C(CO)O2)c(=O)[nH]c1=O)C(I)I (stereo not given) | 87.7 µM (inactive) | > 100 µM (inactive) |  | > 100 µM (inactive) | > 100 µM (inactive) | > 100 µM (inactive) | > 100 µM (inactive) | > 100 µM (inactive) | > 100 µM (inactive) | > 100 µM (inactive) | > 100 µM (inactive) | > 100 µM (inactive) | > 100 µM (inactive) | > 100 µM (inactive) | > 100 µM (inactive) | > 100 µM (inactive) |  |  | > 100 µM (inactive)
O=CC(O)C(O)C(O)COc1cc(CO)cc2c1C(=O)c1ccccc1C2=O (stereo not given) | > 100 µM (inactive) | > 89.5 µM (inactive) | > 100 | > 100 µM (inactive) | > 100 µM (inactive) | > 95.5 µM (inactive) | > 100 µM (inactive) | > 93.8 µM (inactive) | > 100 µM (inactive) | > 100 µM (inactive) | > 100 µM (inactive) | > 100 µM (inactive) | > 100 µM (inactive) | > 95.1 µM (inactive) | 98.9 µM (inactive) | > 100 µM (inactive) |  |  | > 100 µM (inactive)
Cc1ccc(NCCN(C)C)c2c(=O)c3cc(O)ccc3sc12 | 4.47 µM (inactive) | 11.7 µM (inactive) | 2.69 | 0.586 µM (active) | 1.94 µM (inactive) | 20.5 µM (inactive) | 1.5 µM (inactive) | 1.31 µM (inactive) | 5.27 µM (inactive) | 1.19 µM (inactive) | 8.85 µM (inactive) | 2.44 µM (inactive) | 1.63 µM (inactive) | 2.95 µM (inactive) | 5.28 µM (inactive) | 1.94 µM (inactive) | 5.4 µM (inactive) | 2.04 µM (inactive) | 2.64 µM (inactive)
CCCCCn1cnc2c1S(=O)(=O)N(C)C(NC(=O)c1ccccc1)=N2 | > 100 µM (inactive) | > 100 µM (inactive) | > 100 | > 100 µM (inactive) | > 100 µM (inactive) | > 100 µM (inactive) | > 100 µM (inactive) | > 100 µM (inactive) | > 100 µM (inactive) | > 100 µM (inactive) | > 100 µM (inactive) | > 100 µM (inactive) | > 100 µM (inactive) | > 100 µM (inactive) |  | > 100 µM (inactive) |  |  | > 100 µM (inactive)
COc1ccc(N2C(=O)c3c(c4[nH]c5ccccc5c4c4ccc(C(C)(C)C)cc34)C2=O)cc1 | > 100 µM (inactive) | > 100 µM (inactive) | 42.8 | 42.8 µM (inactive) | 28.4 µM (inactive) | 26.2 µM (inactive) | > 100 µM (inactive) | 42 µM (inactive) | 31.8 µM (inactive) | 61.8 µM (inactive) | 37.3 µM (inactive) | 22.5 µM (inactive) | 22.8 µM (inactive) | 20.1 µM (inactive) | 83 µM (inactive) | 64 µM (inactive) |  |  | 54.2 µM (inactive)
CC(=O)c1cccc(NC(=O)C(=O)NNc2nnc(S)n2N)c1 | 8.61 µM (inactive) | 1.85 µM (inactive) | 4.9 | 12.1 µM (inactive) | 11.3 µM (inactive) | 3.06 µM (inactive) | 4.85 µM (inactive) | 17.3 µM (inactive) | 4.14 µM (inactive) | 7.73 µM (inactive) | 14.2 µM (inactive) | 5.46 µM (inactive) | 3.57 µM (inactive) | 1.89 µM (inactive) | 1.93 µM (inactive) | 7.4 µM (inactive) | 2.34 µM (inactive) | 2.27 µM (inactive) | 6.25 µM (inactive)
Cc1cccc(C)c1NC(=O)C(=O)Cc1nc2ccccc2s1 | > 100 µM (inactive) | > 100 µM (inactive) | > 100 | > 100 µM (inactive) | > 100 µM (inactive) | > 100 µM (inactive) | > 100 µM (inactive) | > 100 µM (inactive) | > 100 µM (inactive) | > 100 µM (inactive) | > 100 µM (inactive) | > 100 µM (inactive) | > 100 µM (inactive) | > 100 µM (inactive) | > 100 µM (inactive) | > 100 µM (inactive) |  |  | > 100 µM (inactive)
C[C@]12CCC(=O)C=C1CC[C@@H]1C2CC[C@@]2(C)C1CC[C@@H]2OC(=O)C12OC1CCC2=O (stereo not given in full) | 10.8 µM (inactive) | 17.7 µM (inactive) | 17 | 30.7 µM (inactive) | 16.5 µM (inactive) | 15.2 µM (inactive) | 24.4 µM (inactive) |  | 16.7 µM (inactive) | 16.9 µM (inactive) | 17.9 µM (inactive) | 17.9 µM (inactive) | 15.1 µM (inactive) | 18.3 µM (inactive) | 19.1 µM (inactive) | 23.2 µM (inactive) |  |  | 19.6 µM (inactive)
O=c1[nH]c2c(nc1NC13CC4CC(CC(C4)C1)C3)c(=O)oc1ccccc12 | > 100 µM (inactive) | > 100 µM (inactive) | > 100 | 50.1 µM (inactive) | > 100 µM (inactive) | > 100 µM (inactive) | > 100 µM (inactive) | 2.46 µM (inactive) |  | > 100 µM (inactive) | > 100 µM (inactive) | 32 µM (inactive) | 16.6 µM (inactive) | > 100 µM (inactive) | > 100 µM (inactive) | > 100 µM (inactive) |  |  | 62.2 µM (inactive)
CCOC(OC1=C(C#N)CCC1)C(CC)[Se]c1ccccc1 (stereo not given) | 24.9 µM (inactive) | 3.1 µM (inactive) | 25.6 | > 100 µM (inactive) | 15 µM (inactive) | 20.9 µM (inactive) | 32.7 µM (inactive) | 41 µM (inactive) | 16.6 µM (inactive) |  | 19.5 µM (inactive) | 23.7 µM (inactive) | 10.3 µM (inactive) | 19 µM (inactive) | 11.4 µM (inactive) | 14.3 µM (inactive) |  |  | 48.1 µM (inactive)
O=S1(=O)c2ccccc2N=C(c2ccccc2Cl)CC1c1ccc(F)cc1 (stereo not given) | 17.4 µM (inactive) | 19.7 µM (inactive) | 18.1 | > 10 µM (inactive) | 16.6 µM (inactive) | 17.8 µM (inactive) | 7.62 µM (inactive) | 14.4 µM (inactive) | 18.2 µM (inactive) | 13.4 µM (inactive) | 21.5 µM (inactive) | 21.5 µM (inactive) | 15.1 µM (inactive) | 15.8 µM (inactive) | 20 µM (inactive) | 15.2 µM (inactive) |  |  | 16.8 µM (inactive)
Cc1noc(C)c1C1=CCCCc2ccccc21 | > 100 µM (inactive) | > 100 µM (inactive) | 99.8 | > 100 µM (inactive) | > 100 µM (inactive) | > 100 µM (inactive) | 31.4 µM (inactive) |  | > 100 µM (inactive) | > 100 µM (inactive) | > 100 µM (inactive) | > 100 µM (inactive) | > 100 µM (inactive) | 64.3 µM (inactive) | 97.5 µM (inactive) | > 100 µM (inactive) |  |  | > 100 µM (inactive)
